Data as given in PubChem BioAssay (NCI).
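Growth conditions: 96-well plates. Treatment: test compound, 48 hours, 5 concentrations. Analysis: linear interpolation between bracketing concentrations; unreached endpoints set to highest concentration. The concentration for 50% growth inhibition is given as GI50. TGI: total growth inhibition.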

Legend:
Test in all cases: growth of human tumour cells (NCI), 48 h
NCI-H226 lung = system: NCI-H226 lung
NCI-H23 lung = system: NCI-H23 lung
NCI-H460 lung = system: NCI-H460 lung
NCI-H522 lung = system: NCI-H522 lung
NCI/ADR-RES ovarian = system: NCI/ADR-RES ovarian
OVCAR-3 ovarian = system: OVCAR-3 ovarian
OVCAR-4 ovarian = system: OVCAR-4 ovarian
OVCAR-5 ovarian = system: OVCAR-5 ovarian
OVCAR-8 ovarian = system: OVCAR-8 ovarian
PC-3 prostate = system: PC-3 prostate
RPMI-8226 leukemia = system: RPMI-8226 leukemia
RXF 393 renal = system: RXF 393 renal
SF-268 CNS = system: SF-268 CNS
SF-295 CNS = system: SF-295 CNS
SF-539 CNS = system: SF-539 CNS
SK-MEL-2 melanoma = system: SK-MEL-2 melanoma
SK-MEL-28 melanoma = system: SK-MEL-28 melanoma
SK-MEL-5 melanoma = system: SK-MEL-5 melanoma
SK-OV-3 ovarian = system: SK-OV-3 ovarian
SN12C renal = system: SN12C renal
SNB-19 CNS = system: SNB-19 CNS
SNB-75 CNS = system: SNB-75 CNS
SR leukemia = system: SR leukemia
SW-620 colon = system: SW-620 colon
T-47D breast = system: T-47D breast
TK-10 renal = system: TK-10 renal
U251 CNS = system: U251 CNS
UACC-257 melanoma = system: UACC-257 melanoma
UACC-62 melanoma = system: UACC-62 melanoma
UO-31 renal = system: UO-31 renal

In the case of `CCN1CCN(c2ccc(NC(=O)Nc3ccc(-c4cc(C(=O)NC)c5ncccc5n4)cc3)cc2C(F)(F)F)CC1`, the TGI (NCI-H226 lung) is reported as 6.36 µM, the GI50 (NCI-H23 lung) is reported as 2.68 µM and the TGI (NCI-H23 lung) is reported as 5.68 µM. For the same molecule, the GI50 (NCI-H460 lung) was 0.664 µM, the TGI (NCI-H460 lung) was 2.92 µM and the GI50 (NCI-H522 lung) was 3.23 µM. The TGI (NCI-H522 lung) was 6.4 µM, the GI50 (NCI/ADR-RES ovarian) was 1.78 µM and the TGI (NCI/ADR-RES ovarian) was 8.09 µM. It also gave a GI50 (OVCAR-3 ovarian) of 2.55 µM, a TGI (OVCAR-3 ovarian) of 5.06 µM and a GI50 (OVCAR-4 ovarian) of 2.63 µM. The TGI (OVCAR-4 ovarian) was 5.64 µM, the GI50 (OVCAR-5 ovarian) was 2.82 µM and the TGI (OVCAR-5 ovarian) was 5.23 µM. It also gave a GI50 (OVCAR-8 ovarian) of 3.85 µM, a TGI (OVCAR-8 ovarian) of 10.5 µM and a GI50 (PC-3 prostate) of 2.88 µM. For the same molecule, the TGI (PC-3 prostate) was 6.03 µM, the GI50 (RPMI-8226 leukemia) was 3.05 µM and the TGI (RPMI-8226 leukemia) was > 18 µM. It also gave a GI50 (RXF 393 renal) of 0.494 µM, a TGI (RXF 393 renal) of 1.66 µM and a GI50 (SF-268 CNS) of 3.09 µM. The TGI (SF-268 CNS) was 7 µM, the GI50 (SF-295 CNS) was 2.05 µM and the TGI (SF-295 CNS) was 4.47 µM. It also gave a GI50 (SF-539 CNS) of 2.3 µM, a TGI (SF-539 CNS) of 4.57 µM and a GI50 (SK-MEL-2 melanoma) of 9.87 µM. For the same molecule, the TGI (SK-MEL-2 melanoma) was > 18 µM, the GI50 (SK-MEL-28 melanoma) was 0.322 µM and the TGI (SK-MEL-28 melanoma) was 0.582 µM. For the same molecule, the GI50 (SK-MEL-5 melanoma) was 2.05 µM, the TGI (SK-MEL-5 melanoma) was 4.26 µM and the GI50 (SK-OV-3 ovarian) was 3.48 µM. The TGI (SK-OV-3 ovarian) was 7.5 µM, the GI50 (SN12C renal) was 2.77 µM and the TGI (SN12C renal) was 5.3 µM. It also gave a GI50 (SNB-19 CNS) of 2.97 µM, a TGI (SNB-19 CNS) of 5.48 µM and a GI50 (SNB-75 CNS) of 0.842 µM. For the same molecule, the TGI (SNB-75 CNS) was 3.82 µM, the GI50 (SR leukemia) was 0.67 µM and the TGI (SR leukemia) was > 18 µM. For the same molecule, the GI50 (SW-620 colon) was 0.314 µM, the TGI (SW-620 colon) was 0.621 µM and the GI50 (T-47D breast) was 3.72 µM. The TGI (T-47D breast) was > 18 µM, the GI50 (TK-10 renal) was 3.86 µM and the TGI (TK-10 renal) was 6.63 µM. The GI50 (U251 CNS) was 2.7 µM, the TGI (U251 CNS) was 5.53 µM and the GI50 (UACC-257 melanoma) was 3.05 µM. It also gave a TGI (UACC-257 melanoma) of 6 µM, a GI50 (UACC-62 melanoma) of 3.06 µM and a TGI (UACC-62 melanoma) of 5.66 µM. It also gave a GI50 (UO-31 renal) of 2.71 µM and a TGI (UO-31 renal) of 5.14 µM.
